# Reference: patent US20230339937A1, “CONDENSED RING COMPOUNDS THAT INHIBIT H-PGDS” (SATO PHARMACEUTICAL CO., LTD., priority 2020, published 2023)
# Molecular target: T1, Recombinant human H-PGDS (Homo sapiens, UniProt O60760)
# T1 construct: made in house; host or cells: E. coli
# Experiment: H-PGDS inhibitory activity (prostaglandin D2 production from prostaglandin H2, measured by LC-MS/MS)
# Format: biochemical
# Conditions: recombinant human H-PGDS 1.0 nM expressed in E. coli; prostaglandin H2 25 μM; preincubated 15 minutes on ice, reacted on ice for 1 minute; concentration that inhibits prostaglandin D2 production by 50%
# Outline: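 Recombinant human H-PGDS (E. coli-expressed, 1.0 nM final) preincubated with compound 15 min on ice in 20 mM Tris-HCl pH 8.0, 2 mM MgCl2, 2 mM GSH, 0.5 mg/mL γ-globulin. Reaction with 25 µM PGH2 run 1 min on ice, stopped with FeCl2/citric acid, PGD2 quantified by LC-MS/MS. Activity expressed as % of DMSO control after subtracting non-enzymatic PGD2.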
# T1 sequence (O60760 whole entry): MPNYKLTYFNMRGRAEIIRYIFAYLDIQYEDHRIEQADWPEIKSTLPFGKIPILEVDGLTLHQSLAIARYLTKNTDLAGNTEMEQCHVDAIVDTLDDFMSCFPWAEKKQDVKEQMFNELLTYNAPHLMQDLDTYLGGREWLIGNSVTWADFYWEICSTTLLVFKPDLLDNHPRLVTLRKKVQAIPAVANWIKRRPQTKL
row,IC50 [nM],Structure (SMILES)
1,6.6,"CC(C)(O)[C@H]1CC[C@H](NC(=O)c2ccc(-c3nccc4occc34)c(O)c2)CC1 [Example 134, 4-(furo[3,2-c]pyridin-4-yl)-3-hydroxy-N-[trans-4-(2-hydroxypropan-2-yl)cyclohexyl]benzamide]"
2,9,"CC(C)(O)[C@H]1CC[C@H](NC(=O)c2ccc(-c3ncc(F)c4occc34)cc2)CC1 [Example 136, 4-(7-fluorofuro[3,2-c]pyridin-4-yl)-N-[trans-4-(2-hydroxypropan-2-yl)cyclohexyl]benzamide]"
3,7.7,"O=C(N[C@@H]1CCN(c2ncccn2)C1)c1ccc(-c2nccc3occc23)cc1 [Example 192, (R)-4-(furo[3,2-c]pyridin-4-yl)-N-[1-(pyrimidin-2-yl)pyrrolidin-3-yl]benzamide]"
4,1.4,"O=C(NC1CC1)c1ccc(-c2nccc3[nH]ccc23)cc1 [Example 14, N-cyclopropyl-4-(1H-pyrrolo [3,2-c]pyridin-4-yl)benzamide]"
5,3.3,"O=C(N[C@H]1CC[C@H](CO)CC1)c1ccc(-c2nccc3occc23)cc1 [Example 120, 4-(furo[3,2-c]pyridin-4-yl)-N-[trans-4-(hydroxymethyl)cyclohexyl]benzamide]"
6,1,"[2H]C([2H])([2H])O[C@H]1CC[C@H](NC(=O)c2ccc(-c3nccc4occc34)cc2)CC1 [Example 286, 4-(furo[3,2-c]pyridin-4-yl)-N-[trans-4-(methoxy-d3)cyclohexyl]benzamide]"
7,1.8,"O=C(NC1CCN(c2ccc(F)cn2)CC1)c1ccc(-c2nccc3occc23)cc1 [Example 149, N-[1-(5-fluoropyridin-2-yl)piperidin-4-yl]-4-(furo[3,2-c]pyridin-4-yl)benzamide]"
8,6.4,"O=C(NCc1cccc(CO)c1)c1ccc(-c2nccc3occc23)cc1 [Example 66, 4-(furo[3,2-c]pyridin-4-yl)-N-[3-(hydroxymethyl)benzyl]benzamide]"
9,1.4,"Cn1cc(Br)c(CNC(=O)c2ccc(-c3nccc4[nH]ccc34)cc2)n1 [Example 50, N-[(4-bromo-1-methyl-1H-pyrazol-3-yl)methyl]-4-(1H-pyrrolo[3,2-c]pyridin-4-yl)benzamide]"
10,2.5,"O=C(N[C@H]1CC[C@@H](O)CC1)c1ccc(-c2nccc3occc23)cc1 [Example 262, 4-(furo[3,2-c]pyridin-4-yl)-N-(cis-4-hydroxycyclohexyl)benzamide]"
11,22,"CC(C)(O)CNC(=O)c1ccc(-c2nccc3occc23)cc1 [Example 92, 4-(furo[3,2-c]pyridin-4-yl)-N-(2-hydroxy-2-methylpropyl) benzamide]"
12,2.3,"CC(=O)Nc1cnc(N2CCC(NC(=O)c3ccc(-c4nccc5occc45)cc3)CC2)nc1 [Example 189, N-[1-(5-acetamidopyrimidin-2-yl)piperidin-4-yl]-4-(furo[3,2-c]pyridin-4-yl)benzamide]"
13,2,"O=C(NC1CCN(c2nnnn2C2CC2)CC1)c1ccc(-c2nccc3occc23)cc1 [Example 243, N-[1-(1-cyclopropyl-1H-tetrazol-5-yl)piperidin-4-yl]-4-(furo[3,2-c]pyridin-4-yl)benzamide]"
14,2.4,"O=C(N[C@H]1CC[C@H](O)CC1)c1ccc(-c2nccc3sccc23)cc1 [Example 341, N-(trans-4-hydroxycyclohexyl)-4-(thieno[3,2-c]pyridin-4-yl)benzamide]"
15,0.89,"Cc1nn(C)c(C)c1CNC(=O)c1ccc(-c2nccc3[nH]ccc23)cc1 [Example 40, 4-(1H-pyrrolo[3,2-c]pyridin-4-yl)-N-[(1,3,5-trimethyl-1H-pyrazol-4-yl)methyl] benzamide]"
16,0.63,"O=C(NCCCN1CCS(=O)(=O)CC1)c1ccc(-c2nccc3[nH]ccc23)cc1 [Example 46, N-[3-(1,1-dioxidothiomorpholino)propyl]-4-(1H-pyrrolo[3,2-c]pyridin-4-yl)benzamide]"
17,3.1,"CC(C)(O)CO[C@H]1CC[C@H](NC(=O)c2ccc(-c3nccc4occc34)cc2)CC1 [Example 64, 4-(furo[3,2-c]pyridin-4-yl)-N-[trans-4-(2-hydroxy-2-methylpropoxy)cyclohexyl]benzamide]"
18,4.8,"O=C(N[C@@H]1CCC[C@H](O)C1)c1ccc(-c2nccc3occc23)cc1 (relative stereo) [Example 265, 4-(furo[3,2-c]pyridin-4-yl)-N-(cis-3-hydroxycyclohexyl)benzamide]"
19,1,"O=C(NCC1CC1)c1ccc(-c2nccc3[nH]ccc23)cc1 [Example 18, N-(cyclopropyl-methyl)-4-(1H-pyrrolo[3,2-c]pyridin-4-yl)benzamide]"
20,12,"O=C(NCc1ccncc1)c1ccc(-c2nccc3occc23)cc1 [Example 72, 4-(furo[3,2-c]pyridin-4-yl)-N-(pyridin-4-ylmethyl) benzamide]"
21,1.6,"Cc1cc2occc2c(-c2ccc(C(=O)N[C@H]3CCN(c4ncccn4)C3)cc2)n1 [Example 332, (S)-4-(6-methylfuro[3,2-c]pyridin-4-yl)-N-[1-(pyrimidin-2-yl)pyrrolidin-3-yl]benzamide]"

row,IC50 [nM],Structure (SMILES)
1,3.7,"CS(=O)(=O)c1cccc(NC(=O)c2ccc(-c3nccc4occc34)cc2)c1 [Example 106, 4-(furo[3,2-c]pyridin-4-yl)-N-[3-(methylsulfonyl)phenyl]benzamide]"
2,1.5,"CC(C)(O)CNC(=O)c1ccc(-c2nccc3[nH]ccc23)cc1 [Example 32, N-(2-hydroxy-2-methylpropyl)-4-(1H-pyrrolo[3,2-c]pyridin-4-yl)benzamide]"
3,1.6,"O=C(NCc1cccc(OC(F)F)c1)c1ccc(-c2nccc3[nH]ccc23)cc1 [Example 35, N-[3-(difluoromethoxy)benzyl]-4-(1H-pyrrolo[3,2-c]pyridin-4-yl)benzamide]"
4,1,"O=C(N[C@H]1CCN(c2ncc(CO)cn2)C1)c1ccc(-c2nccc3occc23)cc1 [Example 193, (S)-4-(furo[3,2-c]pyridin-4-yl)-N-{1-[5-(hydroxymethyl)pyrimidin-2-yl]pyrrolidin-3-yl}benzamide]"
5,1.9,"Cc1nnnn1[C@H]1CC[C@H](NC(=O)c2ccc(-c3nccc4occc34)cc2)CC1 [Example 297, 4-(furo[3,2-c]pyridin-4-yl)-N-[trans-4-(5-methyl-1H-tetrazol-1-yl)cyclohexyl]benzamide]"
6,0.91,"COCCn1nc(C)c(CNC(=O)c2ccc(-c3nccc4[nH]ccc34)cc2)c1C [Example 45, N-{[1-(2-methoxyethyl)-3,5-dimethyl-1H-pyrazol-4-yl]methyl}-4-(1H-pyrrolo[3,2-c]pyridin-4-yl)benzamide]"
7,39,"O=C(NC1CC2(CNC2)C1)c1ccc(-c2nccc3occc23)cc1 [Example 209, 4-(furo[3,2-c]pyridin-4-yl)-N-(2-azaspiro[3.3]heptan-6-yl)benzamide]"
8,0.94,"O=C(N[C@H]1CCN(c2ncc(F)cn2)C1)c1ccc(-c2nccc3occc23)cc1 [Example 194, (S)-N-[1-(5-fluoropyrimidin-2-yl)pyrrolidin-3-yl]-4-(furo[3,2-c]pyridin-4-yl)benzamide]"
9,1.3,"NC(=O)c1ccnc(N2CCC(NC(=O)c3ccc(-c4nccc5occc45)cc3)CC2)n1 [Example 175, 2-{4-[4-(furo[3,2-c]pyridin-4-yl)benzamide]piperidin-1-yl}pyrimidine-4-carboxamide]"
10,19,"O=C(Nc1cc(-c2ccccc2)[nH]n1)c1ccc(-c2nccc3occc23)cc1 [Example 100, 4-(furo[3,2-c]pyridin-4-yl)-N-(5-phenyl-1H-pyrazol-3-yl)benzamide]"
11,27,"O=C(NCc1ccccc1)c1ccc(-c2nccc3occc23)cc1 [Example 67, N-benzyl-4-(furo[3,2-c]pyridin-4-yl)benzamide]"
12,13,"CCCCCCNC(=O)c1ccc(-c2nccc3occc23)cc1 [Example 76, 4-(furo[3,2-c]pyridin-4-yl)-N-hexylbenzamide]"
13,3.6,"O=C(NC1CCN(c2cccc3nccn23)CC1)c1ccc(-c2nccc3occc23)cc1 [Example 238, 4-(furo[3,2-c]pyridin-4-yl)-N-[1-(imidazo[1,2-a]pyridin-5-yl)piperidin-4-yl]benzamide]"
14,8.7,"O=C(NC1CC1)c1ccc(-c2nccc3occc23)cc1 [Example 95, N-cyclopropyl-4-(furo[3,2-c]pyridin-4-yl)benzamide]"
15,2,"CC(C)n1nnnc1N1CCC(NC(=O)c2ccc(-c3nccc4occc34)cc2)CC1 [Example 242, 4-(furo[3,2-c]pyridin-4-yl)-N-[1-(1-isopropyl-1H-tetrazol-5-yl)piperidin-4-yl]benzamide]"
16,1.8,"O=C(NC1CCN(c2ccncc2)CC1)c1ccc(-c2nccc3occc23)cc1 [Example 123, 4-(furo[3,2-c]pyridin-4-yl)-N-[1-(pyridin-4-yl)piperidin-4-yl]benzamide]"
17,2,"C[C@]1(O)CC[C@H](NC(=O)c2ccc(-c3nccc4occc34)c(F)c2)CC1 [Example 346, 3-fluoro-4-(furo[3,2-c]pyridin-4-yl)-N-(trans-4-hydroxy-4-methylcyclohexyl)benzamide]"
18,2.3,"N#CN1CCC(NC(=O)c2ccc(-c3nccc4occc34)cc2)CC1 [Example 247, N-(1-cyanopiperidin-4-yl)-4-(furo[3,2-c]pyridin-4-yl)benzamide]"
19,11,"O=C(NCC1CCOC1)c1ccc(-c2nccc3occc23)cc1 (centres unmarked) [Example 81, 4-(furo[3,2-c]pyridin-4-yl)-N-[(tetrahydrofuran-3-yl)methyl] benzamide]"
20,0.78,"O=C(NC1CCN(c2ncccn2)CC1)c1ccc(-c2nccc3occc23)cc1 [Example 143, 4-(furo[3,2-c]pyridin-4-yl)-N-[1-(pyrimidin-2-yl)piperidin-4-yl]benzamide]"
